Data as given in patent US8664245B2, “Fumarate salts of a histamine H3 receptor antagonist” (Sanofi, priority 2009, dated 2014).
Values belong to the compound of their own block, whether it stands above or below them.

Key:
Format in all cases: physicochemical
[1] = Stability testing: storage at 60° C. and ambient RH for two weeks; conditions: solid, ambient RH, 14 days
Description: Stability Testing 1. Storage at 60° C. and Ambient RH for Two Weeks.
Approximately 400 mg of the difumarate monohydrate salt was weighed into a scintillation vial and placed into an oven set to 60° C. The sample was tested for appearance, then diluted with ethanol to approximately 1 mg/mL and analyzed for related substances and optical enantiomer by HPLC.

[2] = Dynamic Vapor Sorption (DVS) water sorption profile
Description: The water sorption profile of a compound of the invention is determined using a SMS Instruments Dynamic Vapor Sorption Analyzer (DVS) Model DVS-Advantage. Relative humidity (RH) and weight are calibrated using standards. The powder of the relevant compound of the invention is loaded and dried at 0% RH for 3 hours prior to starting the experiment. The RH is stepped from 0.1 to 94.4% in 11 steps. The specimen weight is considered constant at each step when percent mass change is less than 0.01% over a 5-minute interval with a minimum absolute equilibration time of 15 minutes and maximum equilibration time of 180 minutes.

[3] = Stability testing: storage at 80° C./80% RH for 4 days; conditions: solid
Description: 3. Storage at 80° C./80% RH for 4 Days
A glass desiccation chamber was pre-equilibrated overnight with a saturated KBr solution to 79.3% RH within an 80° C. oven. Approximately 100 mg of the difumarate monohydrate salt was weighed into respective scintillation vials and these vials were placed into the chamber, which was then sealed to maintain the environment. The sample was tested on day 4 for appearance, then diluted with ethanol to approximately 1 mg/mL and analyzed by HPLC versus a control (time 0) sample.

[4] = Stability testing: storage at 60° C./80% RH for two weeks; conditions: solid, 14 days
Description: 2. Storage at 60° C./80% RH and Ambient RH for Two Weeks.
A glass desiccation chamber was pre-equilibrated overnight with a saturated KBr solution to 79.3% RH within an […] oven. Approximately 400 mg of the difumarate monohydrate was weighed into a scintillation vial and placed into the chamber, which was then sealed to maintain the environment. Samples were tested for appearance, then diluted with ethanol to approximately 1 mg/mL and analyzed for related substances and optical enantiomer by HPLC.

physical stability (physical form by XRPD and DSC-TGA) [1]: no observable change in physical form
Change in Mass (%) - dry, Desorption ([2]; 0.6 % RH, 25° C.): 0.0%
Change in Mass (%) - dry, Sorption ([2]; 0.6 % RH, 25° C.): 0.0%
Change in Mass (%) - dry, Desorption ([2]; 10.2 % RH, 25° C.): 2.9%
Change in Mass (%) - dry, Sorption ([2]; 10.2 % RH, 25° C.): 2.8%
Change in Mass (%) - dry, Desorption ([2]; 19.6 % RH, 25° C.): 2.9%
Change in Mass (%) - dry, Sorption ([2]; 19.6 % RH, 25° C.): 2.9%
Change in Mass (%) - dry, Desorption ([2]; 29.4 % RH, 25° C.): 3.0%
Change in Mass (%) - dry, Sorption ([2]; 29.4 % RH, 25° C.): 3.0%
Change in Mass (%) - dry, Desorption ([2]; 38.5 % RH, 25° C.): 3.0%
Change in Mass (%) - dry, Sorption ([2]; 38.5 % RH, 25° C.): 3.0%
Change in Mass (%) - dry, Desorption ([2]; 48.5 % RH, 25° C.): 3.0%
Change in Mass (%) - dry, Sorption ([2]; 48.5 % RH, 25° C.): 3.0%
Change in Mass (%) - dry, Desorption ([2]; 57.5 % RH, 25° C.): 3.1%
Change in Mass (%) - dry, Sorption ([2]; 57.5 % RH, 25° C.): 3.1%
Change in Mass (%) - dry, Desorption ([2]; 67.1 % RH, 25° C.): 3.1%
Change in Mass (%) - dry, Sorption ([2]; 67.1 % RH, 25° C.): 3.1%
Change in Mass (%) - dry, Desorption ([2]; 77.0 % RH, 25° C.): 3.2%
Change in Mass (%) - dry, Sorption ([2]; 77.0 % RH, 25° C.): 3.1%
Change in Mass (%) - dry, Desorption ([2]; 87.0 % RH, 25° C.): 3.2%
Change in Mass (%) - dry, Sorption ([2]; 87.0 % RH, 25° C.): 3.2%
Change in Mass (%) - dry, Desorption ([2]; 94.2 % RH, 25° C.): 3.3%
Change in Mass (%) - dry, Sorption ([2]; 94.2 % RH, 25° C.): 3.3%
physical stability (physical form by XRPD and DSC-TGA) [4]: no observable change in physical form
Structure (SMILES): CN1CCC[C@H]1CCNS(=O)(=O)c1ccc2c(c1)CN(CC1CCCCC1)CC2.O=C(O)/C=C/C(=O)O [difumarate monohydrate salt, 2-(cyclohexylmethyl)-N-{2-[(2S)-1-methylpyrrolidin-2-yl]ethyl}-1,2,3,4-tetrahydroisoquinoline-7-sulfonamide difumarate monohydrate]
chemical stability (related substances and optical enantiomer by HPLC, appearance) [1]: stable in the solid state with a minimal increase in impurity levels and no observable change in appearance
chemical stability (HPLC versus time 0 control, appearance) [3]: stable in the solid state with no observable chemical change
chemical stability (related substances and optical enantiomer by HPLC, appearance) [4]: stable in the solid state with a minimal increase in impurity levels and no observable change in appearance

Change in Mass (%) - dry, Desorption ([2]; 0.6 % RH, 25° C. (Table 8)): 0.00%
Change in Mass (%) - dry, Sorption ([2]; 0.6 % RH, 25° C. (Table 8)): 0.00%
Change in Mass (%) - dry, Desorption ([2]; 10.1 % RH, 25° C.): 0.56%
Change in Mass (%) - dry, Sorption ([2]; 10.1 % RH, 25° C.): 0.25%
Change in Mass (%) - dry, Desorption ([2]; 19.4 % RH, 25° C.): 6.71%
Change in Mass (%) - dry, Sorption ([2]; 19.4 % RH, 25° C.): 3.53%
Change in Mass (%) - dry, Desorption ([2]; 29.0 % RH, 25° C.): 6.85%
Change in Mass (%) - dry, Sorption ([2]; 29.0 % RH, 25° C.): 3.87%
Change in Mass (%) - dry, Desorption ([2]; 37.8 % RH, 25° C.): 6.89%
Change in Mass (%) - dry, Sorption ([2]; 37.8 % RH, 25° C.): 6.50%
Change in Mass (%) - dry, Desorption ([2]; 47.7 % RH, 25° C.): 6.97%
Change in Mass (%) - dry, Sorption ([2]; 47.7 % RH, 25° C.): 6.89%
Change in Mass (%) - dry, Desorption ([2]; 56.4 % RH, 25° C.): 7.10%
Change in Mass (%) - dry, Sorption ([2]; 56.4 % RH, 25° C.): 7.01%
Change in Mass (%) - dry, Desorption ([2]; 65.7 % RH, 25° C.): 7.21%
Change in Mass (%) - dry, Sorption ([2]; 65.7 % RH, 25° C.): 7.13%
Change in Mass (%) - dry, Desorption ([2]; 75.3 % RH, 25° C.): 7.33%
Change in Mass (%) - dry, Sorption ([2]; 75.3 % RH, 25° C.): 7.32%
Change in Mass (%) - dry, Desorption ([2]; 84.8 % RH, 25° C.): 7.66%
Change in Mass (%) - dry, Sorption ([2]; 84.8 % RH, 25° C.): 7.68%
Change in Mass (%) - dry, Desorption ([2]; 92.0 % RH, 25° C.): 8.25%
Change in Mass (%) - dry, Sorption ([2]; 92.0 % RH, 25° C.): 8.31%
Structure (SMILES): CN1CCC[C@H]1CCNS(=O)(=O)c1ccc2c(c1)CN(CC1CCCCC1)CC2.O=C(O)/C=C/C(=O)O [hemifumarate dihydrate, 2-(cyclohexylmethyl)-N-{2-[(2S)-1-methylpyrrolidin-2-yl]ethyl}-1,2,3,4-tetrahydroisoquinoline-7-sulfonamide hemifumarate dihydrate]
